{"source": "patent US20230390289A1", "about": "“COMBINED USE OF IN10018 AND PLD” (INXMED (NANJING) CO., LTD., priority 2021, published 2023)", "experiment": "Study IN10018-006 safety: adverse events (CTCAE)", "conditions": "female, human, in vivo", "procedure": "IN10018 in combination with pegylated liposomal doxorubicin (PLD) for the treatment of platinum-resistant ovarian cancer is currently being evaluated in a Phase Ib/II clinical study (IN10018-006) in China. The IN10018 was used as its tartrate, and the PLD was used as commercially available doxorubicin hydrochloride liposome injection (common name). Study subjects received IN10018 100 mg once daily (QD) orally combined with PLD 40 mg/m^2 by intravenous infusion once every 4 weeks (Q4W). A treatment cycle was 28 days.\nBy Jul. 30, 2021, a total of 26 patients with platinum-resistant ovarian cancer had been enrolled in the study. All subjects received at least one study drug treatment and were included in the safety analysis; 18 subjects had at least one post-baseline tumor imaging evaluation and were included in efficacy analysis.\nBy Jun. 22, 2021, 21 of the 22 subjects enrolled had adverse events (AEs), and according to the investigator's assessment, 20 of them had AEs related to IN10018. Regardless of the correlation, the system organ classes (SOC) of AE reported by at least 2 subjects were investigations (90.9%), gastrointestinal disorders (81.8%), renal and urinary disorders (72.7%), general disorders and administration site conditions (59.1%), metabolism and nutrition disorders (59.1%), infections and infestations (54.5%), blood and lymphatic system disorders (50.0%), respiratory, thoracic and mediastinal disorders (27.3%), musculoskeletal and connective tissue disorders (22.7%), skin and subcutaneous tissue disorders (18.2%), nervous system disorders (13.6%), cardiac disorders (18.2%) and psychiatric disorders (9.1%).\nBy Jun. 22, 2021, a total of 5 of the 22 subjects enrolled had serious adverse events (SAEs), of which 3 subjects reported SAEs related to IN10018: loss of appetite (grade 3, related to both IN10018 and PLD), constipation (grade 2, related to both IN10018 and PLD), abdominal distension (grade 3, related to both IN10018 and PLD), and elevated creatinine (grade 2, related to both IN10018 and PLD). No subject had adverse events leading to dose reduction of IN10018. Adverse events leading to discontinuation of study treatment were reported by 2 subjects, wherein loss of appetite (grade 3) leading to discontinuation in 1 subject was associated with both IN10018 and PLD. […] There were no adverse events leading to death in the study."}
{"molecule": "COc1cc(C(=O)NC2CCN(C)CC2)c(F)cc1Nc1ncc(C(F)(F)F)c(Oc2cccc3c2C(=O)N(C)C3)n1", "note": "[IN10018, 2-fluoro-5-methoxy-4-[(4-(2-methyl-3-oxo-2,3-dihydro-1H-isoindole-4-oxy)-5-trifluoromethyl-pyrimidin-2-yl)amino]-N-(1-methyl-piperidin-4-yl)benzamide]", "values": [{"measurement": "SAE abdominal distension, grade", "value": 3, "unit": "grade"}, {"measurement": "SAE constipation, grade", "value": 2, "unit": "grade"}, {"measurement": "SAE elevated creatinine, grade", "value": 2, "unit": "grade"}, {"measurement": "SAE loss of appetite, grade", "value": 3, "unit": "grade"}]}
